Measurements published in patent publication EP3818828A1 (priority 2019, dated 2021).
Read-outs that look alike come from different tables or passages of the source.

Tests used:
Format in all cases: cell-based
[1] = system: F. oxysporum f. sp. vasinfectum; assay: Ex vivo mycelial growth inhibition, growth rate method; conditions: 1 mg/mL; for inhibition at 1000 µg/mL: Fusarium oxysporum
Text: (§1) 3-(3',4'-methylenedioxy phenyl)-N-n-propyl acrylamide (at a purity of 99%), 3-(3',4'-methylenedioxy phenyl)-piperidine acrylate (at a purity of 99%), the control agents, 96.5% of chlorothalonil technical (non-systemic broad-spectrum fungicide), 97.2% of carbendazim technical (systemic broad-spectrum fungicide), 97.0% of procymidone technical (systemic fungicide), 96.0% of dimethomorphtechnical ((E,Z)-4-[3-(4-chlorphenyl)3-(3,4-dimethoxy phenyl)acryloyl]morpholine, systemic fungicide), 97.0% of azoxystrobin technical (systemic broad-spectrum fungicide).
(§2) The inhibition of samples for testing on the mycelial growth of plant pathogenic fungi for testing is determined with a growth rate method. 3-(3',4'-methylenedioxy phenyl)-N-n-propyl acrylamide, 3-(3',4'-methylenedioxy phenyl)-piperidine acrylate and five control agents are dissolved with dimethyl sulfoxide (DMSO), then formulated at 5-7 concentrations of different gradients for test following the trial test results, with the same concentration of DMSO as the control solvent, each treatment in triplicate. Fungal cakes with a diameter of 4 mm are taken from the edge of the colony, inoculated into the center of a PDA plate containing different agents of different concentrations and the DMSO control, with one piece of fungal cake inoculated in each plate (with a diameter of […]), and incubated in a constant temperature incubator at a temperature of 22±1.5°C. 7 days later (10-20 days may be needed for some pathogenic fungi), the diameter of the colony is measured with a cross over method according to the mycelial growth profile of the control pathogenic fungi, then the inhibition rate of mycelial growth is calculated.
(§3) The computational formula is as below: the inhibition rate of mycelial growth (%) = [(the diameter of the control colony - the diameter of the treated colony)/the diameter of the control colony] × 100.
(§4) The inhibition results of each agent at a concentration of 1 mg/mL on the mycelial growth of plant pathogenic fungi are shown in Tables 1 and 2.

Sclerotinia sclerotiorum = assay: as above; conditions: 1 mg/mL
Text: as §1, §2, §3, §4

Phytophthora capsici = assay: as above; conditions: Phytophthora capsici; 1 mg/mL
Text: as §1, §2, §3, §4

Botrytis cinerea = assay: as above; conditions: 1 mg/mL
Text: as §1, §2, §3, §4

Exserohilum turcicum = assay: as above; conditions: 1 mg/mL
Text: as §1, §2, §3, §4

F. oxysporum f. sp. lini = assay: as above; conditions: 1 mg/mL; for inhibition at 1000 µg/mL: Fusarium oxysporum
Text: as §1, §2, §3, §4

C. gossypii = assay: as above; conditions: for Average Diameter of the Colony: C. gossypii; for inhibition at 1000 µg/mL: Colletotrichum gossypii, read-out: Inhibition Rate
Text: as §1, §2, §3, §4

Mycosphaerlla melonis = assay: as above; conditions: 1 mg/mL
Text: as §1, §2, §3, §4

Phytophthora infestans [2] = assay: microbe, parasite or virus in culture; conditions: for Average Diameter of the Colony: 1 mg/mL
Pyricularia grisea = assay: microbe, parasite or virus in culture; conditions: for Average Diameter of the Colony: 1 mg/mL; for inhibition at 1000 µg/mL: read-out: Inhibition Rate
F. graminearum = assay: microbe, parasite or virus in culture; conditions: for Average Diameter of the Colony: F. graminearum, 1 mg/mL; for inhibition at 1000 µg/mL: Fusarium graminearum, read-out: Inhibition Rate
Rhizoctonia solani = assay: Ex vivo mycelial growth inhibition, growth rate method; conditions: Rhizoctonia solani; 1 mg/mL
Text: as §1, §2, §3, §4

F. verticillioide = assay: as above; conditions: 1 mg/mL
Text: as §1, §2, §3, §4

Coniella diplodiella = assay: as above; conditions: 1 mg/mL
Text: as §1, §2, §3, §4

Colletotrichum capsici = assay: as above; conditions: 1 mg/mL
Text: as §1, §2, §3, §4

Thanatephorus cucumeris = assay: as above; conditions: 1 mg/mL
Text: as §1, §2, §3, §4

Pythium aphanidermatum = assay: as above; conditions: 1 mg/mL
Text: as §1, §2, §3, §4

Phytophthora infestans [3] = conditions: Phytophthora infestas; 1 mg/mL
Fusarium graminearum = assay: microbe, parasite or virus in culture

SMILES | Average Diameter of the Colony [1] | inhibition at 1000 µg/mL [1] | Average Diameter of the Colony (Sclerotinia sclerotiorum) | inhibition at 1000 µg/mL (Sclerotinia sclerotiorum) | Average Diameter of the Colony (Phytophthora capsici) | inhibition at 1000 µg/mL (Phytophthora capsici) | Average Diameter of the Colony (Botrytis cinerea) | inhibition at 1000 µg/mL (Botrytis cinerea) | Average Diameter of the Colony (Exserohilum turcicum) | inhibition at 1000 µg/mL (Exserohilum turcicum) | Average Diameter of the Colony (F. oxysporum f. sp. lini) | inhibition at 1000 µg/mL (F. oxysporum f. sp. lini) | Average Diameter of the Colony (C. gossypii; 1 mg/mL) | Average Diameter of the Colony (Mycosphaerlla melonis) | inhibition at 1000 µg/mL (Mycosphaerlla melonis) | Average Diameter of the Colony (Phytophthora infestans [2]) | Average Diameter of the Colony (Pyricularia grisea) | inhibition at 1000 µg/mL (Pyricularia grisea) | Average Diameter of the Colony (F. graminearum) | inhibition at 1000 µg/mL (F. graminearum) | also measured
CO/C=C(/C(=O)OC)c1ccccc1Oc1cc(Oc2ccccc2C#N)ncn1 [Azoxystrobin, azoxystrobin] | 3.03 cm | 66.3% | 4.40 cm | 51.1% | 6.70 cm | 25.6% | 4.33 cm | 51.9% | 6.50 cm | 27.8% | 5.93 cm | 34.1% | 5.37 cm | 3.93 cm | 56.3% | 0.00 cm | 4.67 cm | 48.1% | 6.23 cm | 30.8% | inhibition at 1000 µg/mL (C. gossypii): 40.3%; inhibition at 1000 µg/mL (Phytophthora infestans [2]; read-out: Inhibition Rate): 100%
COC(=O)Nc1nc2ccccc2[nH]1 [Carbendazim, carbendazim] | 0.00 cm | 100% | 0.00 cm | 100% | 0.00 cm | 100% | 0.00 cm | 100% | 9.00 cm | 0% | 0.00 cm | 100% | 0.00 cm | 0.00 cm | 100% | 6.80 cm | 0.00 cm | 100% | 1.17 cm | 87% | Average Diameter of the Colony (Rhizoctonia solani): 0.00 cm; inhibition at 1000 µg/mL (Rhizoctonia solani): 100%; Average Diameter of the Colony (F. verticillioide): 0.00 cm; inhibition at 1000 µg/mL (F. verticillioide): 100%; Average Diameter of the Colony (Coniella diplodiella): 0.00 cm; inhibition at 1000 µg/mL (Coniella diplodiella): 100%; Average Diameter of the Colony (Colletotrichum capsici): 0.00 cm; inhibition at 1000 µg/mL (Colletotrichum capsici; Colletotrichum truncatum): 100%; inhibition at 1000 µg/mL (C. gossypii; C. cossypii, 1 mg/mL): 100%; Average Diameter of the Colony (Thanatephorus cucumeris): 0.00 cm; inhibition at 1000 µg/mL (Thanatephorus cucumeris): 100%; Average Diameter of the Colony (Pythium aphanidermatum): 0.00 cm; inhibition at 1000 µg/mL (Pythium aphanidermatum): 100%; Average Diameter of the Colony (Phytophthora infestans [3]): 0.00 cm; Average Diameter of the Colony (Fusarium graminearum; 1 mg/mL): 0.00 cm; inhibition at 1000 µg/mL (Fusarium graminearum; read-out: Inhibition Rate): 100%
